# Measurements reported in patent publication US3949090A, “Methods and compositions for improving feed efficiency in ruminants using dithiooxamide” (SmithKline Corporation, priority 1974, dated 1976).
# System: gas production (strained rumen fluid)
# Assay: In vitro gas production
# Assay type: cell-based
# Details: Table III, control 65
# Protocol: The in vitro fermentation system contained 75 ml. strained rumen fluid, 200 mg, alfalfa hay, 800 mg. of a crude protein grain mixture, 0.8 to 1.6 mM of each of 10 essential amino acids (threonine, valine, methionine, isoleucine, leucine, phelylalanine, tryptophan, lysine and arginine), and 0 to 50 ppm dithiooxamide. Flasks were incubated for 4 hours with effects upon amino acid deamination assessed as described for the previous system. Using standard chromatographic techniques, effects upon methanogenesis and upon the pattern of volatile fatty acid production were determined.
# ^1 In vitro fermentation system contained 75 ml. strained rumen fluid
# 200 mg. alfalfa hay, 800 mg. grain mixture (16% crude protein) and 0.8 mM
# of each of ten essential amino acids. Flasks were incubated for four
smiles,measurement,setting,value
"NC(=S)C(N)=S [Dithiooxamide, dithiooxamide]",Gas Production,dithiooxamide 25 ppm + cobalt sulfate .013 ppm,82 cc
same,Gas Production,dithiooxamide 25 ppm + cobalt sulfate .066 ppm,86 cc
same,Gas Production,dithiooxamide 25 ppm + copper sulfate .067 ppm,85 cc
same,Gas Production,dithiooxamide 25 ppm + copper sulfate .333 ppm,83 cc
same,Gas Production,"dithiooxamide 25 ppm, no added cobalt or copper",85 cc
